Holding throughout (assay): growth of human tumour cells (NCI), 48 h
In experiment [1] the test system is BT-549.
The test system of experiment [2] is TK-10.
Experiment [3] deals with LOX IMVI.
For experiment [4], the system named is NCI-H460.
Experiment [5] relates to K562.
Experiment [6] relates to PC-3.
The subject of experiment [7] is T47D.
Experiment [8] deals with M14.
Experiment [9] concerns HOP-92.
Experiment [10] concerns RXF 393.
For experiment [11], the system named is HT-29.
The test system of experiment [12] is RPMI-8226.
In experiment [13] the test system is NCI-H522.
The subject of experiment [14] is SK-OV-3.
The test system of experiment [15] is UACC-257.
Experiment [16] has as its system SNB-19.
In experiment [17] the test system is A549.
Experiment [18] has as its system Hs-578T.
Experiment [19] deals with MOLT-4.
In experiment [20] the test system is SF-539.

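A five-concentration, 48-hour dose response in 96-well plates underlies each endpoint, interpolated linearly between surrounding concentrations. Here, GI50 denotes the concentration required for 50% inhibition of growth.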 The source made the active and inactive calls. No stated cut-off is given here; in the data, active = GI50 up to about 1.1 µM and inactive = higher.

For `C(=N\Nc1nnc2c(n1)[nH]c1ccccc12)/c1cccnc1`, the GI50 in experiment [1], in experiment [2], in [3], in experiment [4], in experiment [5] and in [6] was > 100 µM (inactive) throughout. The GI50 in [7] is > 100 µM (inactive); in [8] it was 5.07 µM (inactive); in [9], > 100 µM (inactive); in experiment [10], > 100 µM (inactive); in experiment [11] it was > 100 µM (inactive); in [12], > 100 µM (inactive). Also, the GI50 in experiment [13], in [14], in [15], in [16], in experiment [17] and in experiment [18] was > 100 µM (inactive) throughout. In addition, the GI50 in experiment [19] and in experiment [20] was > 100 µM (inactive) each time.
With `COCn1c(=O)n(C)c(=O)c2c1nc1c(c(=O)n(C)c(=O)n1COC)[n+]2[O-]`, the GI50 in experiment [1] is 10.3 µM (inactive); in experiment [2] it was 8.69 µM (inactive); in [3], 6.68 µM (inactive); in experiment [4], 3.15 µM (inactive); in experiment [5] it was 4.75 µM (inactive); in [6] it was 5.07 µM (inactive). For the same compound, the GI50 in [7] was 3.13 µM (inactive); in experiment [8], 10.3 µM (inactive); in experiment [9], 3.61 µM (inactive); in experiment [10] it was 0.789 µM (active); in experiment [11], 18.8 µM (inactive); in [12], 9.1 µM (inactive). The GI50 in [13] was 8.97 µM (inactive); in experiment [14] it was 7.03 µM (inactive); in experiment [15], 18.2 µM (inactive); in experiment [16], 13.7 µM (inactive); in experiment [17], 23.4 µM (inactive); in experiment [18], 8.55 µM (inactive). Besides, the GI50 in experiment [19] is 4.19 µM (inactive); in [20], 14.6 µM (inactive).
On to `COC(=O)CCCc1c(-c2[nH]c3ccccc3c2CCCC(=O)OC)[nH]c2ccccc12`, for which the GI50 in [1], in experiment [2], in [3], in experiment [4], in [5] and in experiment [6] was > 100 µM (inactive) throughout. Besides, the GI50 in experiment [7], in [8], in experiment [9], in experiment [10], in experiment [11] and in experiment [12] was > 100 µM (inactive) throughout. In addition, the GI50 in [13], in experiment [14], in [15], in experiment [16], in [17] and in experiment [18] was > 100 µM (inactive) each time. The GI50 in [19] and in experiment [20] was > 100 µM (inactive) each time.
As to `O=C(NNCC(F)(F)F)c1ccncc1`, the GI50 in experiment [1], in [2], in experiment [3], in [4], in experiment [5] and in experiment [6] was > 100 µM (inactive) in each case. Also, the GI50 in experiment [7], in [8], in experiment [9], in [10], in experiment [11] and in experiment [12] was > 100 µM (inactive) throughout. Moreover, the GI50 in [13], in [14], in experiment [15], in [16], in experiment [17] and in [18] was > 100 µM (inactive) throughout. In addition, the GI50 in experiment [19] and in experiment [20] was > 100 µM (inactive) each time.
Consider `CCOC(=O)C(Cc1ccc(OC(=O)c2ccc(OC)cc2OC)cc1)NC(=O)C(F)(F)F` (stereo not given), for which the GI50 was 79.1 µM (inactive) in experiment [1]; 22.2 µM (inactive) in experiment [2]; 18.6 µM (inactive) in experiment [3]; 34.8 µM (inactive) in experiment [4]; 29.6 µM (inactive) in experiment [5]; 21.8 µM (inactive) in [6]. Further, the GI50 is 23.8 µM (inactive) in [7]; 17.5 µM (inactive) in experiment [8]; 23.1 µM (inactive) in experiment [9]; 19.6 µM (inactive) in experiment [10]; 20.7 µM (inactive) in experiment [11]; 20.3 µM (inactive) in experiment [12]. The GI50 in [13] is 17.9 µM (inactive); in experiment [14], 39 µM (inactive); in [15], 15.3 µM (inactive); in [16], 33.6 µM (inactive); in [17], 36.2 µM (inactive); in experiment [18], 27.5 µM (inactive). The results for the GI50 in experiment [19] and in experiment [20] were 16.8 µM (inactive) and 23.2 µM (inactive), respectively.
Consider `CCOC(=O)C(C(=O)OCC)=C1NC2(c3ccccc3Nc3ccc(C)cc32)C(C(=O)OC)S1` (stereo not given), for which the GI50 was 43.6 µM (inactive) in [1]; 46.9 µM (inactive) in [2]; 33.5 µM (inactive) in [3]; 12.1 µM (inactive) in experiment [4]; 18.4 µM (inactive) in experiment [5]; 6.85 µM (inactive) in experiment [6]. Moreover, the GI50 was 3.96 µM (inactive) in experiment [7]; 27.6 µM (inactive) in experiment [8]; 4.92 µM (inactive) in experiment [9]; 7.18 µM (inactive) in experiment [10]; 23.9 µM (inactive) in experiment [11]; 8.93 µM (inactive) in [12]. Also, the GI50 is 13.6 µM (inactive) in [13]; > 100 µM (inactive) in experiment [14]; 26.4 µM (inactive) in experiment [15]; 55.3 µM (inactive) in experiment [16]; 13.7 µM (inactive) in experiment [17]; 10.3 µM (inactive) in experiment [18]. Also, the GI50 in experiment [19] was 5.58 µM (inactive); in experiment [20], 42.2 µM (inactive).
For the compound `Cc1cccc2c(O)c3c(O)cc(O)cc3nc12`, the GI50 in experiment [1] was 3.61 µM (inactive); in experiment [2], > 10 µM (inactive); in experiment [3], > 10 µM (inactive); in experiment [4], > 10 µM (inactive); in [5], > 10 µM (inactive); in [6], > 10 µM (inactive). The GI50 in [7], in experiment [8], in experiment [9], in experiment [10], in [11] and in experiment [12] was > 10 µM (inactive) each time. In addition, the GI50 in [13], in [14], in experiment [15], in experiment [16], in experiment [17] and in [18] was > 10 µM (inactive) each time. Also, the GI50 is > 10 µM (inactive) in [19] and 6.12 µM (inactive) in experiment [20].
Turning to `COCn1c(C)c(C)c2c(=O)oc(N(C)C)nc21`, the GI50 in experiment [1], in [2], in experiment [3], in experiment [4], in [5] and in experiment [6] was > 100 µM (inactive) each time. Further, the GI50 in experiment [7], in [8], in experiment [9], in [10], in [11] and in [12] was > 100 µM (inactive) in each case. The GI50 was > 100 µM (inactive) in [13]; > 100 µM (inactive) in [14]; > 100 µM (inactive) in experiment [15]; 67 µM (inactive) in experiment [16]; > 100 µM (inactive) in experiment [17]; > 100 µM (inactive) in [18]. For the same compound, the GI50 in experiment [19] and in experiment [20] was > 100 µM (inactive) throughout.
As for `CC1OC(OC2C(OC(=O)[C@]34CCC(C)(C)C[C@H]3C3=CC[C@@H]5[C@@]6(C)CC[C@H](OC7OC(CO)C(O)C(O)C7OC7OC(CO)C(O)C(O)C7O)C(C)(C)[C@@H]6CC[C@@]5(C)[C@]3(C)CC4)OCC(O)C2O)C(O)C(O)C1OC1OCC(O)C(O)C1O` (stereo not given in full), the GI50 in [1] was 9.12 µM (inactive); in [2], 8.51 µM (inactive); in experiment [3], 18.2 µM (inactive); in experiment [4] it was 24.4 µM (inactive); in experiment [5] it was 10.8 µM (inactive); in experiment [6], 12.4 µM (inactive). The GI50 was 15.4 µM (inactive) in experiment [7]; 4.67 µM (inactive) in [8]; 6.85 µM (inactive) in experiment [9]; 9.48 µM (inactive) in experiment [10]; 7.03 µM (inactive) in experiment [11]; 12.9 µM (inactive) in experiment [12]. Further, the GI50 in experiment [13] was 3.67 µM (inactive); in experiment [14] it was 16.3 µM (inactive); in [15], 2.51 µM (inactive); in experiment [16], 14.5 µM (inactive); in [17] it was 6.37 µM (inactive); in [18] it was 20.7 µM (inactive). Further, the results for the GI50 in experiment [19] and in experiment [20] were 16.4 µM (inactive) and 45.8 µM (inactive), respectively.
As to `CC(C)c1ccc(C(O)(C(=O)O)c2ccc(C(C)C)cc2)cc1`, the GI50 in [1] is 91.6 µM (inactive); in [2] it was 79.3 µM (inactive); in [3], 68.5 µM (inactive); in [4] it was 47.2 µM (inactive); in experiment [5] it was 42.5 µM (inactive); in experiment [6], 31.6 µM (inactive). The GI50 in experiment [7] is 43.2 µM (inactive); in experiment [8] it was 63.5 µM (inactive); in experiment [9], 31.8 µM (inactive); in experiment [10], 61.9 µM (inactive); in experiment [11], 48.9 µM (inactive); in experiment [12], 24.8 µM (inactive). In addition, the GI50 is 34 µM (inactive) in [13]; 69.7 µM (inactive) in experiment [14]; > 100 µM (inactive) in [15]; 45 µM (inactive) in experiment [16]; 33.1 µM (inactive) in [17]; 26.3 µM (inactive) in experiment [18]. For the same compound, the GI50 in experiment [19] was 48.8 µM (inactive); in experiment [20], > 100 µM (inactive).

These data come from ChEMBL document CHEMBL1201862, “PubChem BioAssay data set” (2004).
